Assay results taken from PubChem BioAssay AID1996.
Converted amounts (≈) assume the structure as drawn.

Settings: buffer; pH 7.4; 200.0 µM

| SMILES | solubility kinetic [µg/mL] |
| --- | --- |
| O=C(Nc1cccc(C(=O)O)c1)Nc1cccc2ccccc12 | > 45.9 |
| O=C(NCCN1CCOCC1)c1ccccc1Cl | > 40.3 |
| COc1ccccc1-n1nc(C)c(-c2ccccc2)c1N | > 41.9 |
| O=C(NC1CC1)c1c(O)c2ccccc2[nH]c1=O | 2.8 (≈ 11.5 µM) |
| COc1ccc(/C(=N/Nc2ncnc3ccccc23)C(=O)O)cc1 | > 48.3 |
| O=C(Cc1ccsc1)Nc1ccc(Cl)cc1Cl | 3.8 (≈ 13.3 µM) |
| COc1ccc(Cc2nc(-c3cccnc3)no2)cc1OC | 41 (≈ 138 µM) |
| COc1ccccc1NC(=O)COC(=O)CNC(=O)C1CCCCC1 | > 52.3 |
| CN1CCN(S(=O)(=O)c2ccccc2)CC1 | 34.6 (≈ 144 µM) |
| CC(C)(C)OC(=O)N1CCCN(C(=O)Nc2ccc(C(F)(F)F)cc2)CC1 | 53.8 (≈ 139 µM) |
| CCN(CC(=O)N1CCCC1)S(=O)(=O)c1ccc(F)cc1 | 44.1 (≈ 140 µM) |
| Nc1cc(N)nc(SCc2ccc(Cl)cc2)n1 | > 40 |
| O=C(Nc1ccc(Cl)cc1)N1CCSC1=NCc1ccccc1 | 26 (≈ 75.2 µM) |
| COc1ccc2c(c1OC)C(=O)N(c1cccc(NC(C)=O)c1)C2 | 46.6 (≈ 143 µM) |
| CCN(CC(=O)NCc1ccncc1)S(=O)(=O)c1ccccc1 | > 50 |
| CC(=O)c1c(C)[nH]c(C(=O)Nc2ccc(F)c(F)c2F)c1C | 1.8 (≈ 5.8 µM) |
| Cc1nc(NCCOc2ccccc2)sc1C(=O)Nc1ccccc1 | 2 (≈ 5.66 µM) |
| O=C(O)c1cccc2c1C(=O)N(Cc1ccccc1)C2 | > 40.1 |
| O=C(COC(=O)c1cnc(Cl)c(Cl)c1)c1ccc(F)cc1 | 9.4 (≈ 28.6 µM) |
| CN1C(=O)c2ccc(NC(=O)c3cccc4ccccc34)cc2C1=O | 0.8 (≈ 2.42 µM) |

| SMILES | solubility kinetic [µg/mL] |
| --- | --- |
| Cc1ncc(/C=C2\C(=O)Nc3ccccc32)[nH]1 | 12.1 (≈ 53.7 µM) |
| COc1ccccc1NS(=O)(=O)c1cc(N)ccc1N1CCOCC1 | 5 (≈ 13.8 µM) |
| Cc1ccc(C(=O)CSc2nnc3n2CCCCC3)s1 | > 46.1 |
| COc1ccccc1NCc1cc(=O)oc2c(C)c(O)ccc12 | 4.4 (≈ 14.1 µM) |
| Cc1cccc(C(=O)NCCNC(=O)c2ccccn2)c1 | > 42.5 |
| O=C(c1cccc([N+](=O)[O-])c1)c1ccc2[nH]c(=O)[nH]c2c1 | 8 (≈ 28.2 µM) |
| Brc1cc2c(cc1CSc1ncccn1)OCO2 | 0.9 (≈ 2.77 µM) |
| Cc1cc(C)cc(NC(=O)CN2CCN(c3ccccc3)CC2)c1 | 1.8 (≈ 5.57 µM) |
| Cc1ccc(CNC(=O)c2cc3ccccc3oc2=O)cc1 | 1.2 (≈ 4.09 µM) |
| Cc1nc2sccn2c(=O)c1CCN1CCC(=C(c2ccc(F)cc2)c2ccc(F)cc2)CC1 | 12.2 (≈ 25.5 µM) |
| Cc1ccc2nc(NS(=O)(=O)c3cn(C)nc3C)sc2c1 | > 48.4 |
| Cc1[nH]c2ccccc2c(=O)c1CN1CCCCCC1 | > 40.6 |
| CC(C)(C)NC(=O)NC(=O)CSc1ncccn1 | > 40.2 |
| O=C(COC(=O)c1ccc(Cl)nc1)Nc1ccc(Cl)cc1 | 6.4 (≈ 19.7 µM) |
| Cc1nn(C(=O)N(C)C)c(C)c1CN1C(=O)c2ccccc2C1=O | > 49 |
| O=C(NC1CCCC1)C1CCN(S(=O)(=O)c2ccccc2)CC1 | 44.2 (≈ 131 µM) |
| Cc1ccc(OCCCCCN2CCOCC2)c(Cl)c1 | 26.3 (≈ 88.3 µM) |
| CC(C)=C(NC(=O)c1ccccc1)C(=O)NCc1ccccc1 | > 46.3 |
| Cc1ccc([N+](=O)[O-])cc1NC(=O)Cc1ccc(F)cc1 | < 0.3 |
| NC(=S)Nc1cccc(-c2n[nH]c(=S)o2)c1 | > 37.8 |

| SMILES | solubility kinetic [µg/mL] |
| --- | --- |
| Cn1cnnc1SCC(=O)Nc1ccc(N2CCOCC2)cc1 | > 50 |
| COc1ccc(-c2csc(Nc3ccc(C)cn3)n2)cc1OC | 1.3 (≈ 3.97 µM) |
| CSc1ccccc1C(=O)Nc1cc([N+](=O)[O-])ccc1C | 2 (≈ 6.61 µM) |
| O=C(O)CC1c2ccccc2CCN1S(=O)(=O)c1cccs1 (stereo not given) | > 50.6 |
| CSCCC(NC(=O)C1CCCC1)c1nnc2ccccn12 (stereo not given) | > 47.8 |
| Cc1ccc(S(=O)(=O)CC(=O)c2ccc([N+](=O)[O-])cc2)cc1 | 9.1 (≈ 28.5 µM) |
| Cc1cc(C(=O)Nc2ccccc2)c2ccccc2n1 | 3 (≈ 11.4 µM) |
| O=C(CCn1c(=O)oc2ccccc21)NCCCN1CCOCC1 | 43.2 (≈ 130 µM) |
| Cc1ccc(-n2c(CNCc3ccc(F)cc3)nc3ccccc3c2=O)cc1 | 35.1 (≈ 94 µM) |
| COc1cc(C(C)=O)ccc1Oc1cnccn1 | > 36.6 |
| Cc1nc(C)c(Oc2ccc(Cl)cc2Cl)c(=O)[nH]1 | 6.9 (≈ 24.2 µM) |
| COc1ccc(C(C)=O)cc1CSC(=N)N.Cl | > 41.2 |
| Cc1ccc(NC(=S)N2CCC(NC(=O)c3ccco3)CC2)cc1C | 39.2 (≈ 110 µM) |
| CCN(C(=O)COc1ccccc1)C1CCCCC1 | 37.4 (≈ 143 µM) |
| Cc1noc2ncnc(SCc3ccc(C(F)(F)F)cc3)c12 | 1.1 (≈ 3.38 µM) |
| O=C(NCC1CC1)Nc1cccs1 | > 29.4 |
| CN(O)/C=N/C(=S)Nc1ccc(Cl)cc1Cl | 38.4 (≈ 138 µM) |
| COc1cc(CN2CCC(Cc3ccccc3)CC2)c([N+](=O)[O-])cc1OC | 33.5 (≈ 90.4 µM) |
| O=C(O)[C@H](Cc1ccccc1)NC(=O)N1CCN(c2ccccc2)CC1 | 51.8 (≈ 147 µM) |
| NS(=O)(=O)c1ccc(Sc2ccc3c(c2)CCC3)nc1 | 2.5 (≈ 8.16 µM) |
